Measured values: patent publication US11992011B2, “Compounds for controlling plant pathogens” (VIB VZW, priority 2017, dated 2024)

What was measured:
[1] = test system: Meloidogyne graminicola; test: Meloidogyne graminicola infection in rice, first experiment (Example 3); format: in vivo; details: infected rice, 100 μM, median (IQR), n = 8; for Gall number: harvested twelve days after infection; for Galls per AR: per adventitious root
Method: Seeds were germinated on wet tissue paper at 30° C. in the dark for three days, followed by transfer to individual PVC tubes (for nematode infection) containing SAP (Reversat et al., 1999). SAP (sand-absorbent polymer) is a mixture of fine silica sand and ultra-absorbent acrylic copolymer (DCM AquaPerla, DSM, Grobbendonk, Belgium) in a ratio of 1 kg sand to 1.5 g of dry copolymer.
Before use, each tube was washed in soapy water and dried in an oven at 70° C. for two days. […] The first two days after transfer, the tubes were covered with a polyethylene film (Saran Film, Dow Chemicals, Midland, USA) to prevent excessive evaporation. Seedlings were watered three times per week with 8 ml of Hoagland solution (Hoagland, 1938).
M. graminicola was extracted from infected Echinocloa crus-galli roots grown in potting soil at 25° C. Roots were washed until most soil was removed, after which they were cut into short fragments (with special care taken to cut open any outwardly visible galls). The cut material was put in […] pore diameter sieves which were put into a tap water bath at room temperature for three days. The water was then poured over a […] mesh sieve. The sieve surface was washed with approximately 50 ml of non-demineralized water, which was collected into a beaker before it could seep through the sieve.
The number of nematodes in five 100 μl samples taken from the nematode suspension was counted under a stereo microscope and averaged to determine inoculum concentration. Each plant (grown per the protocol outlined in the previous section) was then inoculated by injecting the desired number of nematodes in the SAP surrounding the root system using a micro-pipette.
(§1) Infection experiments with M. graminicola were performed by inoculating host plants 14 days after transfer to SAP by introducing the desired amount of J2 juveniles next to the root system using a micro pipette. Rice plants (cv. Nipponbare or Kitaake) were inoculated with 250 J2 juveniles per plant; wheat plants (cv. Sahara) were inoculated with 600 J2 juveniles per plant. Plants were harvested 14 days after inoculation. At this point, the plants were phenotyped by measuring the shoot and root length with a ruler, counting the number of adventitious roots and in some experiments by measuring leaf area using the EasyLeafArea software (Easlon and Bloom, 2014) and by determining shoot dry mass after 72 hours of drying in an oven at 70° C. Root systems were then stained in acid fuchsine as described in (Byrd et al., 1983) and left to destain in glycerol with 1 ml/l fuming HCl added for approximately ten days. The number of galls and nematodes was then counted using a binocular microscope.
Rice plants were germinated for three days, transferred to SAP and grown for twelve days. After twelve days, 240 M. graminicola J2 nematodes on average were added to each plant. Plants were harvested twelve days after infection and roots were stained with acid fuchsine to visualize galls and nematodes.

[2] = test system: OsC4H; test: qRT-PCR in rice roots, OsC4H (Example 19); details: rice cv. Bomba root tissue; 100 μM; harvested 13 days after germination; N=3 pools
[3] = test system: Meloidogyne graminicola; test: Meloidogyne graminicola infection in wheat cv. Sahara (Example 5); format: in vivo; details: infected wheat, foliar spray; for Number of galls per AR / Number of galls: n = 9; for Number of galls: per root system; for reduction in gall numbers: vs control
Method: For Examples 1, 5 and 10, seeds of the winter wheat cultivar Sahara (Aveve Agrarisch, Landen, Belgium) were used. Seeds were washed in a 10% ethanol solution to remove any residual traces of fungicide and then germinated on wet paper at room temperature for four days; seeds were transferred to SAP tubes and placed in a growth chamber (25° C., 16 hours per day of light). Plants were watered with 8 ml of half-strength Hoagland solution every two days for the first ten days and with 8 ml of full strength Hoagland solution every two days afterwards.
Unless otherwise mentioned, all chemicals for nematode experiments were applied as a foliar spray consisting of the target compound at a concentration of 300 μM together with 0.1% (v/v) Tween 20 surfactant (Calbiochem) in distilled water. Again unless otherwise mentioned, all treatments for the nematode experiments were carried out three times: one and eight days before pathogen inoculation and seven days after pathogen inoculation. In all cases, plants were sprayed until run-off with an atomizer.
as §1
In this experiment, the compounds PA, MDCA and 4-IBA were tested as foliar spray in the monocot staple crop wheat (Triticum aestivum, cv. Sahara) against the nematode Meloidogyne graminicola. The bacterial compound LPS (lipopolysaccharide), which is a potent inducer of the plant immune system and a known priming agent (Desaki et al., 2006), was also included as a positive control.

[4] = test system: OsWRKY45; test: qRT-PCR in rice roots, OsWRKY45 (Example 19); format: in vivo, Oryza sativa; details: rice cv. Bomba root tissue; 100 μM; harvested 13 days after germination; N=3 pools
Method: (§2) After quality control, qPCR was carried out.

[5] = test system: OsPAL2; test: qRT-PCR in rice roots, OsPAL2 (Example 19); format: in vivo, Oryza sativa; details: rice cv. Bomba root tissue; 100 μM; harvested 13 days after germination; N=3 pools
Method: as §2

[6] = test system: OsPAL6; test: qRT-PCR in rice roots, OsPAL6 (Example 19); format: in vivo, Oryza sativa; details: rice cv. Bomba root tissue; 100 μM; harvested 13 days after germination; N=3 pools
Method: as §2

[7] = test system: Meloidogyne graminicola; test: M. graminicola infection in wild type and OsWRKY45 knockdown rice (Example 16); format: in vivo; details: for Likelihood of necrosis / Fraction of empty galls / Fraction of small galls / Gall number / Galls per AR: MDCA/PA spray; for Fraction of empty galls / Fraction of small galls / Gall number / Galls per AR: median (interquartile range); for change of number of galls per root system, WRKY45 treated vs WRKY45 control: WRKY45-RNAi rice; for change of number of galls per root system, WT treated vs WT+CON: wild type rice
Method: as §1
To test the potential involvement of salicylic acid (SA) in MDCA/PA defense enhancement the response of MDCA/PA-treated RNAi-knockdown mutants in OsWRKY45 to nematode infection was examined. The OsWRKY proteins form a family of rice transcription factors that regulate a broad range of cellular processes, most of which are related to abiotic and biotic stress response (Jimmy and Babu, 2015). In keeping with their important role in defense, many OsWRKY genes are controlled by the plant defense hormones jasmonic acid and SA (Ryu et al., 2006; Jimmy and Babu, 2015).
OsWRKY45 is a master regulator of SA-induced defense responses. Knockdown lines in this gene are useful for testing whether MDCA/PA defense enhancement depends on SA signaling, as OsWRKY45 (unlike most other defense genes) is believed to be triggered only by SA (Ryu et al. 2006; incorporated by reference).
Galls were counted and classified by their size and by whether they were empty or not. The presence or absence of necrosis in the root system was also recorded.

[8] = test system: OsICS1; test: qRT-PCR in rice roots, OsICS1 (Example 19); format: in vivo, Oryza sativa; details: rice cv. Bomba root tissue; 100 μM; harvested 13 days after germination; N=3 pools
Method: as §2

[9] = test system: OsPAL4; test: qRT-PCR in rice roots, OsPAL4 (Example 19); format: in vivo, Oryza sativa; details: rice cv. Bomba root tissue; 100 μM; harvested 13 days after germination; N=3 pools
Method: as §2

| Structure (SMILES) | Gall number [1] | Empty galls [1] | Fraction of small galls [1] | Number of J2 [1] | Number of J3 + J4 [1] | Number of adults (with eggs) [1] | Number of adults (without eggs) [1] | Total nematodes [1] | Galls per AR [1] | Fold change vs. control, OsC4H expression [2] | Number of galls per AR [3] | Number of galls [3] | reduction in gall numbers [3] [%] | Fold change vs. control, OsWRKY45 expression [4] | Fold change vs. control, OsPAL2 expression [5] | Fold change vs. control, OsPAL6 expression [6] | Likelihood of necrosis ([7]; WRKY45-RNAi knockdown rice) | Fraction of empty galls ([7]; WRKY45-RNAi knockdown rice) | Fraction of small galls ([7]; WRKY45-RNAi knockdown rice) | Gall number ([7]; WRKY45-RNAi knockdown rice) | further results |
| --- | --- | --- | --- | --- | --- | --- | --- | --- | --- | --- | --- | --- | --- | --- | --- | --- | --- | --- | --- | --- | --- |
| O=C(O)/C=C/c1ccc2c(c1)OCO2 [MDCA, 3,4-methylenedioxycinnamic acid] | 11.5 (IQR = 3.3) | 0.5 (IQR = 1.3) | 0.84 (IQR = 0.13) | 7.5 (IQR = 8.0) | 8.0 (IQR = 8.3) | 3.0 (IQR = 13.3) | 20.0 (IQR = 7.3) | 41.5 (IQR = 14.3) | 0.78 (IQR = 0.22) | 3.73 | 2.4 ± 0.8 | 24.6 ± 6.3 | −35 | 1.67 | 1.86 | 1.40 | 0.50 ± 0.53 | 0.09 (0.01) | 0.94 (0.03) | 52.0 (10.8) | Galls per AR ([7]; WRKY45-RNAi knockdown rice): 3.3 (0.7); change of number of galls per root system, WRKY45 treated vs WRKY45 control [7]: −23%; Likelihood of necrosis ([7]; Wild type rice): 0.63 ± 0.52; Fraction of empty galls ([7]; Wild type rice): 0.02 (0.04); Fraction of small galls ([7]; Wild type rice): 0.86 (0.07); Gall number ([7]; Wild type rice): 36.5 (10.3); Galls per AR ([7]; Wild type rice): 2.3 (0.6); change of number of galls per root system, WT treated vs WT+CON [7]: −42%; Fold change vs. control, OsICS1 expression [8]: 1.73; Fold change vs. control, OsPAL4 expression [9]: 2.38 |
| O=C(O)c1ccc2c(c1)OCO2 [PA, Piperonylic acid] | 12.5 (IQR = 4.0) | 0.0 (IQR = 1.0) | 0.76 (IQR = 0.08) | 9.0 (IQR = 8.3) | 5.0 (IQR = 5.5) | 0.5 (IQR = 1.3) | 19.5 (IQR = 11.8) | 32.5 (IQR = 17.8) | 0.83 (IQR = 0.29) | 9.87 | 2.5 ± 1.1 | 25.6 ± 6.5 | −33 | 1.30 | 1.29 | 1.26 | 0.60 ± 0.52 | 0.02 (0.03) | 0.91 (0.05) | 39.0 (20.3) | Galls per AR ([7]; WRKY45-RNAi knockdown rice): 2.2 (0.8); change of number of galls per root system, WRKY45 treated vs WRKY45 control [7]: −41%; Likelihood of necrosis ([7]; Wild type rice): 0.78 ± 0.44; Fraction of empty galls ([7]; Wild type rice): 0.03 (0.03); Fraction of small galls ([7]; Wild type rice): 0.93 (0.06); Gall number ([7]; Wild type rice): 33.0 (10.0); Galls per AR ([7]; Wild type rice): 1.8 (0.5); change of number of galls per root system, WT treated vs WT+CON [7]: −42%; Fold change vs. control, OsICS1 expression [8]: 1.36; Fold change vs. control, OsPAL4 expression [9]: 3.04 |
